Activity calls are given as the source filed them.
Columns and labels:
Estrogen receptor = target: T1, Estrogen receptor (Homo sapiens, UniProt P03372);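 also: potency for inhibiting coactivator peptide recruitment to the receptor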
T1 sequence (P03372 whole entry): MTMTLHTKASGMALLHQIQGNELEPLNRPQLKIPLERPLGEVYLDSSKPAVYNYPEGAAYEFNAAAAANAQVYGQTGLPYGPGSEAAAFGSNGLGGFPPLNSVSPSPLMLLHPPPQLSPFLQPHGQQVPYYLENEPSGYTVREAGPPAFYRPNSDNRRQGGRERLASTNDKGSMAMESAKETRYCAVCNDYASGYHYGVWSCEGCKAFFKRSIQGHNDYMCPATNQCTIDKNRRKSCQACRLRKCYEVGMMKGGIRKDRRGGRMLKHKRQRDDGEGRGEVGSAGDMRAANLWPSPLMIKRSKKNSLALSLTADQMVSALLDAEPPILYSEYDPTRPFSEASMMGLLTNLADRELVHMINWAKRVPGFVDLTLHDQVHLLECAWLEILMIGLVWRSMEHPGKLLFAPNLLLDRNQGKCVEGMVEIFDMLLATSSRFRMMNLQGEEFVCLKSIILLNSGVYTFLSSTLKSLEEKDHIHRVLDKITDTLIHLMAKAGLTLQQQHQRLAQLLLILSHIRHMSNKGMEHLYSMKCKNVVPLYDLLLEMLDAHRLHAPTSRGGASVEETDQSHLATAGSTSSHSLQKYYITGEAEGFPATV

Estrogen receptor beta = Estrogen receptor beta (Homo sapiens, UniProt Q92731);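 also: recombinant ER-beta bound to coactivator SRC1 peptide in presence of estradiol agonist; inhibitors block coactivator peptide binding and lower the FRET signal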
Chain of Estrogen receptor beta (Q92731 whole entry): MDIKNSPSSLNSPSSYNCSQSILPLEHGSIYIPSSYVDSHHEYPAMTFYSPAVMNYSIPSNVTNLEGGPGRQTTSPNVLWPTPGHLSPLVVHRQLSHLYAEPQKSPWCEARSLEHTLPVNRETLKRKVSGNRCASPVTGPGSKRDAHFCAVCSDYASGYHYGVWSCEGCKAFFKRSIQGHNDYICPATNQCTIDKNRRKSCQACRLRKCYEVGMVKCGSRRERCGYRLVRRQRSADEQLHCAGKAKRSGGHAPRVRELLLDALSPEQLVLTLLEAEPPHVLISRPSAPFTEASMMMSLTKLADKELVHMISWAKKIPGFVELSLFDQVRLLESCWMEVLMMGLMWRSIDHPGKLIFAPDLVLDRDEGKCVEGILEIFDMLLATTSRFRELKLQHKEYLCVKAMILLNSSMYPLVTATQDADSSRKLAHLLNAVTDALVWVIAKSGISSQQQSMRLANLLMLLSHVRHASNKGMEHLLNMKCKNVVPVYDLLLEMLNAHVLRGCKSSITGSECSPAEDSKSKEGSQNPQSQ

[1] = Luminescent dose response cell-based high throughput screening assay for inhibitors of the Janus kinase 2 mutant JAK2V617F. [Related pubchem assays: 1446 (Primary screen.), 1521 (Confirmation assay.), 1486 (Counter screen.)]; assay type: functional
[2] = target: T2, Rac GTPase-activating protein 1 (Homo sapiens, UniProt Q9H0H5); experiment: MgcRacGAP GTPase-activating activity inhibitors, confirmation, biochemical, ADP Hunter fluorescence, primary and confirmatory (AID 624330); assay type: functional
T2 sequence (Q9H0H5 whole entry): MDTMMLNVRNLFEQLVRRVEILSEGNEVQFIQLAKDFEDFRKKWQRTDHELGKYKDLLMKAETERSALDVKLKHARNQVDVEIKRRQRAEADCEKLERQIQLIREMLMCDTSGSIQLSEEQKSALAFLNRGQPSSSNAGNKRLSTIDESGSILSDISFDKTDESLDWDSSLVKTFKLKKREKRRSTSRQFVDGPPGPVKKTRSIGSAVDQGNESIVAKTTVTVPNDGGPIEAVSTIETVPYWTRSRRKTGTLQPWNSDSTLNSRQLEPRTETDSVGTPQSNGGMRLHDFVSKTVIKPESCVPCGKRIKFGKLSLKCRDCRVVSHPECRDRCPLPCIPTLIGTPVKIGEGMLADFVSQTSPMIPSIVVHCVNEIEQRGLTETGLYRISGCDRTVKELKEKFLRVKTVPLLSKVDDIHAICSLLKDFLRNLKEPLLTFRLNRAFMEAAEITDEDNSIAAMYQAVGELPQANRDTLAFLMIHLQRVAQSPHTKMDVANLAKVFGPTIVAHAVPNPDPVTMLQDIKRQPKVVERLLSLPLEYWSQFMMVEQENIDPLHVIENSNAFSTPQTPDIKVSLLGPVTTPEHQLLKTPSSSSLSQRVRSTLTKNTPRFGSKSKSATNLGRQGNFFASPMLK

[3] = THP-1 cell cytotoxicity, dose response, cytotoxicity control for Vif-APOBEC3G degradation inhibitor project, THP-1 cells (AID 1117359); assay type: functional; conditions: Human immunodeficiency virus 1, THP-1
[4] = HEp-2 cell cytotoxicity, dose response, cytotoxicity control for RSV inhibitor project, HTS (AID 2410); assay type: functional; conditions: human respiratory syncytial virus
[5] = M. tuberculosis growth inhibition, HTS (AID 449762); assay type: functional
[6] = microbe, parasite or virus in culture; assay type: functional; conditions: Mycobacterium tuberculosis
[7] = target: T3, Corticotropin-releasing factor receptor 2/Corticotropin-releasing factor-binding protein (Homo sapiens, UniProt P24387+Q13324); experiment: Dose Response confirmation of uHTS hits for small molecule antagonists of the CRF-binding protein and CRF-R2 receptor complex.; assay type: functional; conditions: read-out: IC50_Mean
T3 sequence (Q13324 whole entry): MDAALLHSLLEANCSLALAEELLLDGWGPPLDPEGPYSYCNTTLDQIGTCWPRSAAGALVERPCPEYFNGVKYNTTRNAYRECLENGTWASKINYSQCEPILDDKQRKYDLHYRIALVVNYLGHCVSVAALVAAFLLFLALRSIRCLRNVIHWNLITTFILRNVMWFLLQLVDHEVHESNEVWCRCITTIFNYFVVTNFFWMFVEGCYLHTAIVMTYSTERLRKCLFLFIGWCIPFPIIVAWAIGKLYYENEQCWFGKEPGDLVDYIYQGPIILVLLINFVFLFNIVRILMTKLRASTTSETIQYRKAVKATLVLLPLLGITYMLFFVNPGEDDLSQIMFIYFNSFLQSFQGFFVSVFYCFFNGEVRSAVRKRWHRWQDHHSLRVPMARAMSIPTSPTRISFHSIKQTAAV
T3 sequence (P24387 whole entry): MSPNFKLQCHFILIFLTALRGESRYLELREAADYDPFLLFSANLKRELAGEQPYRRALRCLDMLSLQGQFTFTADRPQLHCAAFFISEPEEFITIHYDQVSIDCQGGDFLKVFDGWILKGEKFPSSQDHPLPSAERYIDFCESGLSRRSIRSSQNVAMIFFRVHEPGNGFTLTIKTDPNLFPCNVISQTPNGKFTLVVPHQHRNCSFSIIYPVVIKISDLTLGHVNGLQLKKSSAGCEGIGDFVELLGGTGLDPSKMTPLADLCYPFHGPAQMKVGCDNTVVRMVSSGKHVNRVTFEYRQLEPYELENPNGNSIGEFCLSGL

[8] = target: T3, Corticotropin-releasing factor receptor 2/Corticotropin-releasing factor-binding protein; experiment: activators of CRF receptor 2 with binding protein – uHTS hits, confirmation (AID 602473); assay type: functional; conditions: read-out: EC50_Mean

Cn1nc([N+](=O)[O-])c2c(-c3nc4ccccc4s3)c(N)n(C3CCCCC3)c2c1=O
IC50 (Estrogen receptor): 4.98 µM (active)
IC50 (Estrogen receptor beta): 6.01 µM (active)

O=C(/C=C/c1ccc(O)c(O)c1)c1ccc(S(=O)(=O)N2CCCCCC2)cc1
IC50 [1]: 0.835 µM (active)
IC50 [2]: 82 µM (active)
CC50 [3]: 26.3 µM (active)

Cc1nn(-c2ccccc2)c(N2CCCC2)c1/C=N/Nc1ccc(S(N)(=O)=O)cc1[N+](=O)[O-]
CC50 [4]: 33.2 µM (active)
IC50 [5]: > 100 µM (active)
CC50 [6]: > 40 µM (active)
IC50 [7]: > 47.1 µM (inactive)
EC50 [8]: > 53 µM (inactive)

From ChEMBL document CHEMBL1201862, “PubChem BioAssay data set” (2004)
